Assay results published in patent US20260258397A1, “REAGENTS AND SYSTEMS FOR […]” (priority 2023, published 2026).

Experiments:
PYR1^WIN-M = target: T1, PYR1^WIN-M (Arabidopsis thaliana, UniProt O49686, A160I/D26G/F159A/H60P/K59Q/N90S/Y23H); experiment: PYR1 ELISA-like plate assay, immobilized PYR1^WIN-M with biotinylated ΔN-HAB1^T+; assay type: binding; conditions: PYR1^WIN-M ELISA-like format
T1 construct: made in house; host or cells: E. coli
Method: PYR1 was immobilized overnight in clear plates, blocked with KPL milk diluent in buffer CBS ^17 (CBSM). All binding reactions were performed using CBSM. Detection was performed via binding a streptavidin-HRP conjugate to biotinylated ΔN-HAB1^T+ followed by incubation with a commercial TMB reagent. Lower limits of detection (LODs) were determined by linear regression of the response data in the low linear range using the formula LOD=3σy/m, where m is the slope of the response line and σy is the standard error of the y intercept using data combined from biological replicates.
Unconjugated 6×His-MBP-PYR1 variants were immobilized to Microlon clear plates (655081) using 100 μL of CBS without pH modification, at a protein concentration of 100 μg mL^−1, or 1.57 AM at 4° C. overnight. Wells assigned as no PYR controls received only CBS. Plates were sealed using Microseal B adhesive sealers (BioRad MSB-1001). […] The pellet was stored on ice until the blocked and washed plates were ready to receive the binding reactions. ΔN-HAB1^T+ was exchanged into CBSM with 1 mM DTT and 1 mM TCEP (CBSM++) using Zeba™ spin desalting columns (Thermo) were equilibrated with CBSM++. ΔN-HAB1^T+ was diluted to 10× the final binding reaction concentration and was immediately added to the pre-assembled assays in PCR plates, which were mixed by pipetting and transferred to the washed, blocked Microlon plates. […]

[1] = test system: PYR1 mutant receptors (ligand-dependent binding to HAB1); experiment: Yeast two-hybrid screens of PYR1 DSM and CB-S libraries for cannabinoid sensors

T1 sequence (O49686 whole entry Y23H/D26G/K59Q/H60P/N90S/F159A/A160I, other chains not shown): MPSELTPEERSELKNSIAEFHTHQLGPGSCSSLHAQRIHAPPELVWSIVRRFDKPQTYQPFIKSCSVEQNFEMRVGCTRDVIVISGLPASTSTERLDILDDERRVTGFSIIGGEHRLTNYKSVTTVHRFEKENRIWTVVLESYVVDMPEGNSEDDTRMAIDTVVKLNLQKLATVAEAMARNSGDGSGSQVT

What does the source list for `Cc1c(C(=O)c2cccc3ccccc23)c2cccc3c2n1[C@H](CN1CCOCC1)CO3` [WIN 55,212-2]?
average LOD from two biological replicates (PYR1^WIN-M): 0.21 ng/ml; affinity of improved sensors ([1]; CB-S2 library screened on 50 nM, 25 nM: JWH-015 PYR1 K59N/Y120H/F159L/A160G, JWH-016 V81I/Y120G/F159L/A160G, JWH-072 E4G/K59N/Y120H/F159L/A160G, WIN 55,212 E4G/Y23H/D26G/K59Q/F159A/A160I): low nM affinity; outcome of DSM library Y2H selection ([1]; DSM library selected on 30 μM ligand, hits for 'pM concentrations' as printed): double mutant hits
